Laboratory results taken from US20230085307A1, “PYRIDAZINONE COMPOUND AND HERBICIDE” (NISSAN CHEMICAL CORPORATION, priority 2019, published 2023).

What was measured:
southern crabgrass = assay: Test Example 4: herbicidal effect by soil treatment (Table 19, symbol F); type: in vivo, southern crabgrass (Digitaria ciliaris); conditions: amount of applied herbicide 320 g/ha
How it was run: (§1)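 Step 1: sow seeds in sterilized diluvial soil, cover ~1.5 cm. Step 2: spray diluted emulsion onto soil surface at predetermined rate. Step 3: greenhouse, 25–30° C, three weeks. Step 4: grade effect on each plant by earlier criteria.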

barnyard grass [1] = assay: Test Example 5: herbicidal effect by foliage application, plastic box (Table 20, symbol H); type: in vivo, barnyard grass (Echinochloa crus-galli); conditions: foliage application; for H: barnyard grass, herbicidal effect (criteria 0-5): evaluated three weeks after application
How it was run: (§2)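 Foliar spray test: emulsion formulation diluted in water to a set application rate, sprayed onto 14-day-old plants raised in diluvial soil at 25° C to 30° C under glass. Both herbicidal effect and crop effect rated visually three weeks later.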

oval-leafed pondweed = assay: Test Example 2: herbicidal activity, application during weed generation under submerged conditions (Table 17, symbol C); type: in vivo, oval-leafed pondweed (Monochoria vaginalis); conditions: AAH 320 g/ha; application during weed generation, submerged conditions
How it was run: (§3)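 Effect on each weed is rated three weeks post-treatment, using the same scoring criteria as the preceding test. Plants grow from mixed-sown seed in flooded alluvial soil (4 cm water) at 25° C. to 30° C., and are treated at one to two leaves with diluted emulsion dropped onto the water.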

redroot pigweed [2] = assay: Test Example 5: herbicidal effect by foliage application, plastic box (Table 20, symbol N); type: in vivo, redroot pigweed (Amaranthus retroflexus); conditions: foliage application; for N: redroot pigweed, herbicidal effect (criteria 0-5): evaluated three weeks after application
How it was run: as §2

persian speedwell [3] = assay: Test Example 5: herbicidal effect by foliage application, plastic box (Table 20, symbol R); type: in vivo, Persian speedwell (Veronica persica); conditions: foliage application; for R: persian speedwell, herbicidal effect (criteria 0-5): evaluated three weeks after application
How it was run: as §2

false cleavers = assay: Test Example 4: herbicidal effect by soil treatment (Table 19, symbol Q); type: in vivo, false cleavers (Galium spurium); conditions: amount of applied herbicide 320 g/ha
How it was run: as §1

wild oat = assay: Test Example 4: herbicidal effect by soil treatment (Table 19, symbol I); type: in vivo, wild oat (Avena fatua); conditions: amount of applied herbicide 320 g/ha
How it was run: as §1

blackgrass = assay: Test Example 4: herbicidal effect by soil treatment (Table 19, symbol J); type: in vivo, blackgrass (Alopecurus myosuroides); conditions: amount of applied herbicide 320 g/ha
How it was run: as §1

late watergrass = assay: Test Example 2: herbicidal activity, application during weed generation under submerged conditions (Table 17, symbol A); type: in vivo, late watergrass (Echinochloa oryzicola); conditions: AAH 320 g/ha; application during weed generation, submerged conditions
How it was run: as §3

windgrass = assay: Test Example 5: herbicidal effect by foliage application, plastic box (Table 20, symbol L); type: in vivo, windgrass (Apera spica-venti); conditions: foliage application; for L: windgrass, herbicidal effect (criteria 0-5): evaluated three weeks after application
How it was run: as §2

redroot pigweed [4] = assay: Test Example 4: herbicidal effect by soil treatment (Table 19, symbol N); type: in vivo, redroot pigweed (Amaranthus retroflexus); conditions: amount of applied herbicide 320 g/ha
How it was run: as §1

green foxtail = assay: Test Example 4: herbicidal effect by soil treatment (Table 19, symbol G); type: in vivo, green foxtail (Setaria viridis); conditions: amount of applied herbicide 320 g/ha
How it was run: as §1

velvetleaf = assay: Test Example 4: herbicidal effect by soil treatment (Table 19, symbol M); type: in vivo, velvetleaf (Abutilon theophrasti); conditions: amount of applied herbicide 320 g/ha
How it was run: as §1

chickweed = assay: Test Example 5: herbicidal effect by foliage application, plastic box (Table 20, symbol P); type: in vivo, common chickweed (Stellaria media); conditions: foliage application; for P: chickweed, herbicidal effect (criteria 0-5): evaluated three weeks after application
How it was run: as §2

barnyard grass [5] = assay: Test Example 4: herbicidal effect by soil treatment (Table 19, symbol H); type: in vivo, barnyard grass (Echinochloa crus-galli); conditions: amount of applied herbicide 320 g/ha
How it was run: as §1

Japanese bulrush = assay: Test Example 2: herbicidal activity, application during weed generation under submerged conditions (Table 17, symbol B); type: in vivo, Japanese bulrush (Schoenoplectus juncoides); conditions: AAH 320 g/ha; application during weed generation, submerged conditions
How it was run: as §3

persian speedwell [6] = assay: Test Example 4: herbicidal effect by soil treatment (Table 19, symbol R); type: in vivo, Persian speedwell (Veronica persica); conditions: amount of applied herbicide 320 g/ha
How it was run: as §1

[7] = AAH 320 g/ha, three weeks after application
[8] = 320 g/ha, three weeks after application

Compound | herbicidal effect rating, F: southern crabgrass (southern crabgrass) | herbicidal effect rating, C: oval-leafed pondweed (oval-leafed pondweed) | herbicidal effect rating, Q: false cleavers (false cleavers) | herbicidal effect rating, I: wild oat (wild oat) | herbicidal effect rating, J: blackgrass (blackgrass) | herbicidal effect rating, A: late watergrass (late watergrass) | herbicidal effect rating, N: redroot pigweed (redroot pigweed [4]) | herbicidal effect rating, G: green foxtail (green foxtail) | herbicidal effect rating, M: velvetleaf (velvetleaf) | herbicidal effect rating, H: barnyard grass (barnyard grass [5]) | herbicidal effect rating, B: Japanese bulrush (Japanese bulrush) | herbicidal effect on F: southern crabgrass (southern crabgrass) | H: barnyard grass, herbicidal effect (criteria 0-5) (barnyard grass [1]; AAH 320 g/ha) | herbicidal effect on R: persian speedwell (persian speedwell [6]) | N: redroot pigweed, herbicidal effect (criteria 0-5) (redroot pigweed [2]; AAH 320 g/ha) | R: persian speedwell, herbicidal effect (criteria 0-5) (persian speedwell [3]; AAH 320 g/ha) | herbicidal effect on I: wild oat (wild oat) | herbicidal effect on J: blackgrass (blackgrass) | L: windgrass, herbicidal effect (criteria 0-5) (windgrass; AAH 320 g/ha) | herbicidal effect on N: redroot pigweed (redroot pigweed [4]) | further results
Cc1nn(C)c(=O)c(-c2c(-c3ccc4c(c3)OCCO4)sc3ccccc23)c1O [1-089] | 3 (Herbicidal rate of 40% or more and less than 70%) | 1 (Herbicidal rate of 5% or more and less than 20%) | 5 (Herbicidal rate of 90% or more (almost completely withered)) | 0 (Herbicidal rate of 5% or less (almost no effect)) | 0 (Herbicidal rate of 5% or less (almost no effect)) | 5 (Herbicidal rate of 90% or more (almost completely withered)) | 4 (Herbicidal rate of 70% or more and less than 90%) | 5 (Herbicidal rate of 90% or more (almost completely withered)) | 2 (Herbicidal rate of 20% or more and less than 40%) | 5 (Herbicidal rate of 90% or more (almost completely withered)) | 1 (Herbicidal rate of 5% or more and less than 20%) | – | – | – | – | – | – | – | – | – | H: barnyard grass, herbicidal effect (barnyard grass [1]; [7]): 5 (Herbicidal rate of 90% or more (almost completely withered)); N: redroot pigweed, herbicidal effect (redroot pigweed [2]; [7]): 1 (Herbicidal rate of 5% or more and less than 20%); R: persian speedwell, herbicidal effect (persian speedwell [3]; [7]): 5 (Herbicidal rate of 90% or more (almost completely withered)); L: windgrass, herbicidal effect (windgrass; [7]): 4 (Herbicidal rate of 70% or more and less than 90%); P: chickweed, herbicidal effect (chickweed; [7]): 5 (Herbicidal rate of 90% or more (almost completely withered))
Cc1nn(C)c(=O)c(-c2c(-c3ccc(CSCC(F)(F)F)cc3)sc3ccc(F)cc23)c1O [2-331] | – | 0 (Herbicidal rate of 5% or less (almost no effect)) | – | – | – | 3 (Herbicidal rate of 40% or more and less than 70%) | – | – | – | – | 0 (Herbicidal rate of 5% or less (almost no effect)) | 3 (Herbicidal rate of 40% or more and less than 70%) | 5 (Herbicidal rate of 90% or more (almost completely withered)) | 4 (Herbicidal rate of 70% or more and less than 90%) | 5 (Herbicidal rate of 90% or more (almost completely withered)) | 5 (Herbicidal rate of 90% or more (almost completely withered)) | 0 (Herbicidal rate of 5% or less (almost no effect)) | 0 (Herbicidal rate of 5% or less (almost no effect)) | 4 (Herbicidal rate of 70% or more and less than 90%) | 5 (Herbicidal rate of 90% or more (almost completely withered)) | herbicidal effect on Q: false cleavers (false cleavers): 0 (Herbicidal rate of 5% or less (almost no effect)); herbicidal effect on G: green foxtail (green foxtail): 4 (Herbicidal rate of 70% or more and less than 90%); herbicidal effect on M: velvetleaf (velvetleaf): 2 (Herbicidal rate of 20% or more and less than 40%); P: chickweed, herbicidal effect (criteria 0-5) (chickweed; AAH 320 g/ha): 5 (Herbicidal rate of 90% or more (almost completely withered)); herbicidal effect on H: barnyard grass (barnyard grass [5]): 3 (Herbicidal rate of 40% or more and less than 70%)
CCCC(=O)Oc1c(C)nn(C)c(=O)c1-c1c(-c2ccc(SC)cc2)sc2ccccc12 [1-037] | 0 (Herbicidal rate of 5% or less (almost no effect)) | 3 (Herbicidal rate of 40% or more and less than 70%) | 0 (Herbicidal rate of 5% or less (almost no effect)) | 0 (Herbicidal rate of 5% or less (almost no effect)) | 0 (Herbicidal rate of 5% or less (almost no effect)) | 0 (Herbicidal rate of 5% or less (almost no effect)) | 5 (Herbicidal rate of 90% or more (almost completely withered)) | 5 (Herbicidal rate of 90% or more (almost completely withered)) | 3 (Herbicidal rate of 40% or more and less than 70%) | 2 (Herbicidal rate of 20% or more and less than 40%) | 1 (Herbicidal rate of 5% or more and less than 20%) | – | – | – | – | – | – | – | – | – | herbicidal effect grade, H: barnyard grass (barnyard grass [1]; [8]): 4 (Herbicidal rate of 70% or more and less than 90%); herbicidal effect rating, R: persian speedwell (persian speedwell [6]): 3 (Herbicidal rate of 40% or more and less than 70%); herbicidal effect grade, N: redroot pigweed (redroot pigweed [2]; [8]): 5 (Herbicidal rate of 90% or more (almost completely withered)); herbicidal effect grade, R: persian speedwell (persian speedwell [3]; [8]): 5 (Herbicidal rate of 90% or more (almost completely withered)); herbicidal effect grade, L: windgrass (windgrass; [8]): 0 (Herbicidal rate of 5% or less (almost no effect)); herbicidal effect grade, P: chickweed (chickweed; [8]): 5 (Herbicidal rate of 90% or more (almost completely withered))
Cc1nn(C)c(=O)c(-c2c(-c3ccc(OC(F)F)cc3)sc3ccc(F)cc23)c1OC(=O)c1cccs1 [2-288] | – | 3 (Herbicidal rate of 40% or more and less than 70%) | – | – | – | 3 (Herbicidal rate of 40% or more and less than 70%) | – | – | – | – | 3 (Herbicidal rate of 40% or more and less than 70%) | 3 (Herbicidal rate of 40% or more and less than 70%) | 5 (Herbicidal rate of 90% or more (almost completely withered)) | 5 (Herbicidal rate of 90% or more (almost completely withered)) | 5 (Herbicidal rate of 90% or more (almost completely withered)) | 5 (Herbicidal rate of 90% or more (almost completely withered)) | 0 (Herbicidal rate of 5% or less (almost no effect)) | 0 (Herbicidal rate of 5% or less (almost no effect)) | 3 (Herbicidal rate of 40% or more and less than 70%) | 4 (Herbicidal rate of 70% or more and less than 90%) | herbicidal effect on G: green foxtail (green foxtail): 4 (Herbicidal rate of 70% or more and less than 90%); herbicidal effect on M: velvetleaf (velvetleaf): 3 (Herbicidal rate of 40% or more and less than 70%); P: chickweed, herbicidal effect (criteria 0-5) (chickweed; AAH 320 g/ha): 5 (Herbicidal rate of 90% or more (almost completely withered)); herbicidal effect on H: barnyard grass (barnyard grass [5]): 2 (Herbicidal rate of 20% or more and less than 40%)
